Test results taken from patent US12529162B2, “Method of screening for peptides capable of binding to a ubiquitin protein ligase (E3)” (Phoremost Limited, priority 2019, dated 2026).
Entries after “also recorded” stand apart in the source; their conditions may differ. Like-named read-outs stand apart in the source and are kept apart here. Each block holds one sequence with its values, some of them ahead of it.

Columns and labels:
TNKS2 (residues 20-800) = TNKS2 (residues 20-800) (Homo sapiens, UniProt Q9H2K2); details: read-out: affinity of binding to TNKS2; fluorescence polarization; Guettler et al., 2011; cited from earlier work
TNKS2 = biological target: T1, TNKS2 (Homo sapiens, UniProt Q9H2K2); assay: Western blot of TNKS2 levels in HEK293A cells transfected with PROTAC-encoding plasmids; type: cell-based; details: 20 hours after transfection, actin loading control
T1 construct: endogenous in cells; host or cells: HEK293A
T1 sequence (Q9H2K2 1-1166): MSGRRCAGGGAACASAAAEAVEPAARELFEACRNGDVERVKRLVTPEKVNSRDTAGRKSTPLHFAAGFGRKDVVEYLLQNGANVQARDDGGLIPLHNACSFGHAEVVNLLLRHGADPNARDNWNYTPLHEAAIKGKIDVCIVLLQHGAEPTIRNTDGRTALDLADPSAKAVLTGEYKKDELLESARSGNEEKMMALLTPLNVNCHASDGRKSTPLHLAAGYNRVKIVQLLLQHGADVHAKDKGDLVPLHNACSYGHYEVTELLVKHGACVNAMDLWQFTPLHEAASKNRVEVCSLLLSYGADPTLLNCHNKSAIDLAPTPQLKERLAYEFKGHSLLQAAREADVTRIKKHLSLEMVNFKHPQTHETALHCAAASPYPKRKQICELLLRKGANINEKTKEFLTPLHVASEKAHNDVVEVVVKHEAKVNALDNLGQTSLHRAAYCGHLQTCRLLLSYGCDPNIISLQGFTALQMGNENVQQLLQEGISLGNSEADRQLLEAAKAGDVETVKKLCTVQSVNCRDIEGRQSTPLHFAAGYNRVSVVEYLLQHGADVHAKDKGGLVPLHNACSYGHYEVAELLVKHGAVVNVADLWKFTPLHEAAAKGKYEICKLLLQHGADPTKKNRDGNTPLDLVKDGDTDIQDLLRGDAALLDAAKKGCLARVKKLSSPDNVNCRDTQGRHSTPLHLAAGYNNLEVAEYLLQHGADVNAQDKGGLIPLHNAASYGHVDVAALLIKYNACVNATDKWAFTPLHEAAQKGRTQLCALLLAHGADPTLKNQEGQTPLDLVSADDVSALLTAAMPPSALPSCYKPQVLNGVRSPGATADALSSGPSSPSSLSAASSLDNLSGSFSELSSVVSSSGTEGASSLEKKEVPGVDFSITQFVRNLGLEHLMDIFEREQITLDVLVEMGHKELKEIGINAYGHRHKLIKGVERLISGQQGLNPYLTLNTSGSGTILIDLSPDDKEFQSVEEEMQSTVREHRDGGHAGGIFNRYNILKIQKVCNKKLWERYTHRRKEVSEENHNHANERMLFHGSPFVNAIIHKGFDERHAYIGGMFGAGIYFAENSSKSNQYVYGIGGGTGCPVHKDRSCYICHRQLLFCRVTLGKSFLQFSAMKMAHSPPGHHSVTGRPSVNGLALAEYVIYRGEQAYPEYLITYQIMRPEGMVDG
From the text: A DNA construct encoding for the TNKS2 binding sequence (3BP2^410-425) at the N-terminus as set out in SEQ ID NO: 1, a GGGGSS linker as set out in SEQ ID NO: 3, and the E3 binding sequence (ALAPYIP) as set out in SEQ ID NO: 2, at the C-terminus was cloned into pMOST25 vector (the full PROTAC as set out in SEQ ID NO: 4). pMOST25 is a lentiviral vector based on pCDH EF1a (System Biosciences) where the promoter was swapped for CMV and the MCS replaced by a new cassette with flanking NGS primer sites. Control constructs which (i) lacked the ALAPYIP E3 binding sequence (3BP2^410-425) as set out in SEQ ID NO: 5 or (ii) contained a double mutation which is known to disrupt HIF1α-VHL interaction (3BP2^410-425-ALAAAIP) as set out in SEQ ID NO: 6 were similarly cloned (Table 1). Neither control construct can bind to the E3 ligase and therefore there should be no change in the level of TNKS2 when cells are transduced with these. HEK293A cells were collected 20 hours after transfection, and levels of TNKS2 target protein were assessed by Western Blot (FIG. 2). Membranes were probed with primary antibodies against TNKS2 (Abcam ab155545), or actin (Abcam ab179467) as a loading control. […]
20 hours after transfection, cells were harvested and analyzed by Western Blotting. […]

GFP [1] = details: HEK293A
Method: GFP was used as the target (test protein) in this study.
GFP-peptide expressing cells were either untreated (DMSO treatment only; ‘Peptide+vehicle’) or treated with the proteasome inhibitor MG132 (10 μM in DMSO, for 4 h) (‘Peptide+MG132’), and were then analyzed by FACS for GFP levels (FIG. 8).

GFP [2] = details: HEK293A; remark: listed apart in the source
Method: Plasmids encoding for GFP alone (control), or GFP tagged with one of the validated candidate peptide hits from the screening method, Hit (#1) (see Example 5) or Hit (#2), were transduced into HEK293A cells using lentivirus. Cells expressing tagged GFP were either untreated (DMSO treatment only) or treated with the proteasome inhibitor MG132 for 4 hours, after which they were harvested and analyzed by Western Blotting. Membranes were probed with primary antibodies against GFP (CST #2555), or actin (Abcam ab179467) as a loading control. After the addition of HRP-conjugated secondary antibodies, protein signals were detected by chemiluminescence (FIG. 9).

Sequence: LPHLQRSPPDGQSFRS
Kd (TNKS2 (residues 20-800)): 500 nM

Sequence: MGLPHLQRSPPDGQSFRSLEGGGGSSAALAPYIP (3BP2(410-425)- ALAPYIP peptide) [3BP2^410-425-ALAPYIP]
levels of TNKS2 by Western blot (TNKS2): led to TNKS2 degradation; also recorded: markedly decreased levels of TNKS2

levels of TNKS2 by Western blot (TNKS2): unaffected
Sequence: MGLPHLQRSPPDGQSFRSLEGGGGSSLDPETGEYL (3BP2(410-425) - LDPETGEYL peptide) [3BP2^410-425-LDPETGEYL]

Sequence: MQNNPLTSGLEPSPPQCDYIRPSLTGKFAGNPWYYGKVTRHQAEMA [Hit (#1)]
GFP levels by FACS compared to no peptide control (GFP [1]; Peptide+MG132 (10 μM, 4 h)): restored GFP levels back to that of the ‘no peptide control’ cells
GFP levels by FACS compared to no peptide control (GFP [1]; Peptide+vehicle (DMSO only)): marked degradation of GFP
GFP levels by Western blot (GFP [2]; MG132 treated 4 hours): GFP levels were restored
GFP levels by Western blot compared to GFP control (GFP [2]; absence of MG132): almost complete depletion of GFP
